The results in this text go back to ChEMBL document CHEMBL1909046, “DrugMatrix in vitro pharmacology data”.

The pIC50 is the negative decadic logarithm of the IC50, by convention in mol/L. The term pKi denotes −log10 of the Ki, conventionally taken in molar units.

For data set [1], the target named is Voltage-gated inwardly rectifying potassium channel KCNH2 (Homo sapiens, UniProt Q12809). Particulars: hek293. Note: in other assays of this panel Not Active means under 50% inhibition at 10 µM.
Data set [2] in a line: DRUGMATRIX: Interleukin IL-1 radioligand binding (ligand: [125I] interleukin 1beta). It counts as cell membranes, Membrane. The note with it: nih3t3; Not Active = under 50% inhibition at 10 µM.
The target in data set [3] is T1, C-C chemokine receptor type 4 (Homo sapiens, UniProt P51679). Note: in other assays of this panel Not Active means under 50% inhibition at 10 µM.
T1 sequence (P51679 whole entry): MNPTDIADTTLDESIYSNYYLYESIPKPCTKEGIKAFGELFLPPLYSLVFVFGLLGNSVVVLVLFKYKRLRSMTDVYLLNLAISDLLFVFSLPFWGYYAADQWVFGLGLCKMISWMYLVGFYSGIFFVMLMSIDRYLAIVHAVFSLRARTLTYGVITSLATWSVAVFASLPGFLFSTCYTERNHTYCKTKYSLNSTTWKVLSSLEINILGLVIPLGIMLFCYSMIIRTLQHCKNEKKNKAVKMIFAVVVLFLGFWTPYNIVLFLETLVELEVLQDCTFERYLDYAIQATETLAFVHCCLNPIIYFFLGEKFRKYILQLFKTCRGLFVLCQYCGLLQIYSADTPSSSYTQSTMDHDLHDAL
It counts as cell membranes, Membrane. The note with it: chem-1.

The nature of data set [4]: DRUGMATRIX: Platelet-Derived Growth Factor (PDGF) radioligand binding (ligand: [125I] PDGF). It counts as cell-based. The note with it: nih3t3; Not Active = under 50% inhibition at 10 µM.
For the next data set, the target named is T2, Progesterone receptor (Bos taurus, UniProt Q690N0).
T2 sequence (Q690N0 whole entry): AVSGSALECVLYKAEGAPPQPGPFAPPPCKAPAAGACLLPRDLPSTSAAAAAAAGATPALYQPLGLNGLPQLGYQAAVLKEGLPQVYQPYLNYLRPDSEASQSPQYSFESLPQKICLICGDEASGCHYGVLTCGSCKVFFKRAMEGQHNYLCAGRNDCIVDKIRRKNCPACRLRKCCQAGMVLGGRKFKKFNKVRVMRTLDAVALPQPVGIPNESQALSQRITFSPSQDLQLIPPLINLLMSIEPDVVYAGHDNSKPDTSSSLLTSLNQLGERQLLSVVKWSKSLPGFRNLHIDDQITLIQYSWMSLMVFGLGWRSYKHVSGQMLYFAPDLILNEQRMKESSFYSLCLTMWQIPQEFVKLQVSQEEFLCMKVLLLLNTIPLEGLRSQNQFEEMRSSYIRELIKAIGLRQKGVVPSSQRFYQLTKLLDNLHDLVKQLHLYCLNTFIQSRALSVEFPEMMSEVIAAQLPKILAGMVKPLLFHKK
Briefly: DRUGMATRIX: Progesterone radioligand binding (ligand: [3H] R-5020). It counts as tissue-based, Uterus. The note with it: Not Active = under 50% inhibition at 10 µM.

Data set [5] can be described thus: DRUGMATRIX: Phosphodiesterase PDE4 enzyme inhibition (substrate: [3H]cAMP + cAMP). Particulars: u-937; Not Active = under 50% inhibition at 10 µM.
The target in another data set is T3, D(4) dopamine receptor (Homo sapiens, UniProt P21917).
T3 sequence (P21917 whole entry): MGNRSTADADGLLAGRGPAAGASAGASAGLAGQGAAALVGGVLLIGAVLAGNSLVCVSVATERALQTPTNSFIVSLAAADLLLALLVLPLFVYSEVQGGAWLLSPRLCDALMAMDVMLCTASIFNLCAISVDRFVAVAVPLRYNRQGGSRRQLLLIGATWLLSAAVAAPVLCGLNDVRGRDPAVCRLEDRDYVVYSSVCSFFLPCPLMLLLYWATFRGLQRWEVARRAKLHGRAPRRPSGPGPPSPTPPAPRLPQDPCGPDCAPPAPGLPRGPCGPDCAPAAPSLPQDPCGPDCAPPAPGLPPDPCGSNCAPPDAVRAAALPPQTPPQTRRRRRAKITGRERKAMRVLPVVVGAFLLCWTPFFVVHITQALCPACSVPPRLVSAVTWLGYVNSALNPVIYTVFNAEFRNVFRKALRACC
Put plainly: DRUGMATRIX: Dopamine D4.2 radioligand binding (ligand: [3H] Spiperone). The note with it: cho-k1; Not Active = under 50% inhibition at 10 µM. It counts as cell membranes, Membrane.

The target of the next data set is Cannabinoid receptor 1 (Homo sapiens, UniProt P21554). It counts as cell membranes, Chem-1, Membrane. The note with it: for IC50: chem-1. For all read-outs here: in other assays of this panel Not Active means under 50% inhibition at 10 µM.
Sequence of Cannabinoid receptor 1 (P21554 whole entry): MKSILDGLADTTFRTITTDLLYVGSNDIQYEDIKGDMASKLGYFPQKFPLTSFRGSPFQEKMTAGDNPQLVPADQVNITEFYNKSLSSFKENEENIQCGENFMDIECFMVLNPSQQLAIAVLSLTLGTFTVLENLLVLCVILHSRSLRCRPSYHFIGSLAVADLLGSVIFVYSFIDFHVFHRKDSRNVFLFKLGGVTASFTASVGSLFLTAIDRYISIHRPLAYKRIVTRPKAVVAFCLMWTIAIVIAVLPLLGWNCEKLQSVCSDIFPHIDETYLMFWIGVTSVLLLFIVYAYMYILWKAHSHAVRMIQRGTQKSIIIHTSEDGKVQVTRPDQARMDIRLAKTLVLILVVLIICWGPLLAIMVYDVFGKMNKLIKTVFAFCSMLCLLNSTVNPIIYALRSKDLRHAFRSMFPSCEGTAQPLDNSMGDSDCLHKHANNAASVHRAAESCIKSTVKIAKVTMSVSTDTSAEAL

pIC50, pKi: −log10 of the molar value.

Sequence of Voltage-gated inwardly rectifying potassium channel KCNH2 (Q12809 whole entry): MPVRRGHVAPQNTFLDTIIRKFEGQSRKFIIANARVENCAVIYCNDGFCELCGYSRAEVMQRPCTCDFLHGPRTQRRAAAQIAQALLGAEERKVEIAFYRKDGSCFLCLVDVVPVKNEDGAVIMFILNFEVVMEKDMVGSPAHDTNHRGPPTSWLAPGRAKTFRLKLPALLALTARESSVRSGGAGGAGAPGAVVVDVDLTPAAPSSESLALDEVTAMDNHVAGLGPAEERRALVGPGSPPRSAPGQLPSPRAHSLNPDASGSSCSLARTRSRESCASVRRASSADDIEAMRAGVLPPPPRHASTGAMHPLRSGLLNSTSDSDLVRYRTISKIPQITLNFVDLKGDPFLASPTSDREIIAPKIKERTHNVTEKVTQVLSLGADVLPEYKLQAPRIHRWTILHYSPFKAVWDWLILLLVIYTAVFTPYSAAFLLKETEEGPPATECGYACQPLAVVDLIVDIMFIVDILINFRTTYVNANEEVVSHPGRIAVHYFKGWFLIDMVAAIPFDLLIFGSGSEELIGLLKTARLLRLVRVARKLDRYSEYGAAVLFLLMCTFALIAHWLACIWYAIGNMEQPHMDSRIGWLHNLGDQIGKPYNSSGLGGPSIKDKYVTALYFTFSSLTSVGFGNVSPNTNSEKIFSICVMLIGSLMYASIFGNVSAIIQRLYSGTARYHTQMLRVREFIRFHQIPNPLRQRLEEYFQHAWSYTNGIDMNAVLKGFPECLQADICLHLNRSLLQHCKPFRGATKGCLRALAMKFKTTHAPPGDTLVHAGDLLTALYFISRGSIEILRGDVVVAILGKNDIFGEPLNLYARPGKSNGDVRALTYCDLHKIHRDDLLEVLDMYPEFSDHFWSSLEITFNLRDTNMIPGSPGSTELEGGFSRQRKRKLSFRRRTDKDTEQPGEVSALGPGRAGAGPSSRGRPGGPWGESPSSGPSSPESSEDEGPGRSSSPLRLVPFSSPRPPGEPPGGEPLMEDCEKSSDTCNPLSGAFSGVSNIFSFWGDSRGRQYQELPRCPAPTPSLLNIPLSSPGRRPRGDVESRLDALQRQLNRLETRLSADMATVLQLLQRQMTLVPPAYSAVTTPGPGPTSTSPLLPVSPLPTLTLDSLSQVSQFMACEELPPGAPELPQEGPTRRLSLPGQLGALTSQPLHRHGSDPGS

Consider `CC(C)Cc1ccc(C(C)C(=O)O)cc1` (stereo not drawn) [IBUPROFEN], for which the IC50 entry (in data set [1]; in data set [2]; in data set [3]; in data set [4]; at Progesterone receptor; in data set [5]) was “Not Active” each time. For the same compound, the IC50 result on D(4) dopamine receptor and at Cannabinoid receptor 1 was “Not Active” throughout. In addition, the Ki entry in data set [1], in data set [2], in data set [4] and in data set [5] was “Not Active” throughout.

Consider `COc1ccc2c(c1)c(CC(=O)O)c(C)n2C(=O)c1ccc(Cl)cc1` [INDOMETHACIN], for which the IC50 entry (in data set [1]; in data set [2]; in data set [3]; in data set [4]; at Progesterone receptor; in data set [5]) was “Not Active” in each case. The IC50 result on D(4) dopamine receptor and against Cannabinoid receptor 1 was “Not Active” in each case. Further, the Ki entry in data set [1], in data set [2], in data set [4] and in data set [5] was “Not Active” throughout.

In the case of `CCc1c2c(nc3ccc(OC(=O)N4CCC(N5CCCCC5)CC4)cc13)-c1cc3c(c(=O)n1C2)COC(=O)[C@]3(O)CC` [IRINOTECAN], the IC50 entry (in data set [1]; in data set [2]; in data set [3]; in data set [4]; on Progesterone receptor; in data set [5]) was “Not Active” throughout. Further, the IC50 result at D(4) dopamine receptor and at Cannabinoid receptor 1 was “Not Active” in each case. The Ki entry in data set [1], in data set [2], in data set [4] and in data set [5] was “Not Active” each time.

For `CC(C(=O)O)c1cccc(C(=O)c2ccccc2)c1` (stereo not drawn) [KETOPROFEN], the IC50 result (in data set [1]; in data set [2]; in data set [3]; in data set [4]; on Progesterone receptor; in data set [5]) was “Not Active” in each case. Moreover, the IC50 result at D(4) dopamine receptor and at Cannabinoid receptor 1 was “Not Active” each time. The Ki entry in data set [1], in data set [2], in data set [4] and in data set [5] was “Not Active” throughout.

As to `Nc1ccn([C@@H]2CS[C@H](CO)O2)c(=O)n1` [LAMIVUDINE], the IC50 result (in data set [1]; in data set [2]; in data set [3]; in data set [4]; at Progesterone receptor; in data set [5]) was “Not Active” in each case. Further, the IC50 entry on D(4) dopamine receptor and against Cannabinoid receptor 1 was “Not Active” throughout. The Ki result in data set [1], in data set [2], in data set [4] and in data set [5] was “Not Active” in each case.

For the compound `O=S(=O)([O-])CCS.[Na+]` [MESNA], the IC50 entry (in data set [1]; in data set [2]; in data set [3]; in data set [4]; on Progesterone receptor; in data set [5]) was “Not Active” each time. The IC50 entry on D(4) dopamine receptor and against Cannabinoid receptor 1 was “Not Active” throughout. Besides, the Ki result in data set [1], in data set [2], in data set [4] and in data set [5] was “Not Active” each time.

In the case of `C#C[C@]1(O)CC[C@H]2[C@@H]3CCc4cc(OC)ccc4[C@H]3CC[C@@]21C` [MESTRANOL], the IC50 result (in data set [1]; in data set [2]; in data set [3]; in data set [4]; in data set [5]; at D(4) dopamine receptor) was “Not Active” each time. Further, the Ki result in data set [1], in data set [2], in data set [4] and in data set [5] was “Not Active” each time. Moreover, the pIC50 at Progesterone receptor (read-out: IC50) was 4.07; on Cannabinoid receptor 1 (read-out: IC50), 4.54. In addition, the results for the pKi at Progesterone receptor (read-out: Ki) and on Cannabinoid receptor 1 (read-out: Ki) were 4.96 and 4.65, respectively.

In the case of `CC(=O)Nc1cccc(O)c1` [METACETAMOL], the IC50 result (in data set [1]; in data set [2]; in data set [3]; in data set [4]; on Progesterone receptor; in data set [5]) was “Not Active” each time. Moreover, the IC50 result on D(4) dopamine receptor and on Cannabinoid receptor 1 was “Not Active” in each case. Besides, the Ki result in data set [1], in data set [2], in data set [4] and in data set [5] was “Not Active” each time.

With `Cc1ncc([N+](=O)[O-])n1CCO` [METRONIDAZOLE], the IC50 result (in data set [1]; in data set [2]; in data set [3]; in data set [4]; at Progesterone receptor; in data set [5]) was “Not Active” in each case. Besides, the IC50 result at D(4) dopamine receptor and on Cannabinoid receptor 1 was “Not Active” each time. Also, the Ki result in data set [1], in data set [2], in data set [4] and in data set [5] was “Not Active” in each case.

Turning to `CC(C)(C(=O)c1cccnc1)c1cccnc1` [METYRAPONE], the IC50 entry (in data set [1]; in data set [2]; in data set [3]; in data set [4]; on Progesterone receptor; in data set [5]) was “Not Active” throughout. The IC50 entry at D(4) dopamine receptor and against Cannabinoid receptor 1 was “Not Active” each time. In addition, the Ki result in data set [1], in data set [2], in data set [4] and in data set [5] was “Not Active” throughout.

Turning to `Oc1ccc(OCc2ccccc2)cc1` [MONOBENZONE], the IC50 result (in data set [1]; in data set [2]; in data set [3]; in data set [4]; at Progesterone receptor; in data set [5]) was “Not Active” each time. The IC50 entry on D(4) dopamine receptor and on Cannabinoid receptor 1 was “Not Active” each time. Also, the Ki result in data set [1], in data set [2], in data set [4] and in data set [5] was “Not Active” throughout.

As to `CC(C)(Oc1ccc(C2CCCc3ccccc32)cc1)C(=O)O` (stereo not drawn) [NAFENOPIN], the IC50 result (in data set [1]; in data set [2]; in data set [3]; in data set [4]; on Progesterone receptor; in data set [5]) was “Not Active” in each case. For the same compound, the IC50 result on D(4) dopamine receptor and against Cannabinoid receptor 1 was “Not Active” in each case. Further, the Ki result in data set [1], in data set [2], in data set [4] and in data set [5] was “Not Active” each time.

Turning to `CC(C)[C@H]1CC[C@H](C(=O)N[C@H](Cc2ccccc2)C(=O)O)CC1` [NATEGLINIDE], the IC50 entry (in data set [1]; in data set [2]; in data set [3]; in data set [4]; on Progesterone receptor; in data set [5]) was “Not Active” throughout. Further, the IC50 entry at D(4) dopamine receptor and on Cannabinoid receptor 1 was “Not Active” in each case. The Ki entry in data set [1], in data set [2], in data set [4] and in data set [5] was “Not Active” in each case.
